The source of these data is patent US20130197073A1, “HYPOCHOLESTEROLEMIC, ANTI-INFLAMMATORY AND ANTIEPILEPTIC NEUROPROTECTIVE COMPOUND” (NEURON BIOPHARMA, S.A., priority 2010, published 2013).

In data set [1] the test system is zebrafish (Danio rerio, AB strain) embryos. Briefly: Zebrafish embryo acute toxicity, mortality (OECD C.15). The format is in vivo. The settings on record: for Mortality (dead larvae with respect to the total): 3 days. As for the experimental part:
30 control animals treated with dilution water and with daily replacement until the end of the assay.
30 animals treated with compound NST0060 (3 embryos for every ten replicates) diluted in dilution water at doses between 1 and 100 mg/Kg and with daily replacement of the substance during the days that the assay lasted.
After the time of exposure to the substances under study, the mortality record of the larvae was determined, results being shown in Table 2.

Data set [2] shares this test system. Kind of data set: Zebrafish embryo cardiotoxicity, heart rate. To be noted: 72 hpt.
The test system is the same in data set [3]. Briefly: Zebrafish embryo acute toxicity, percentage of healthy larvae. To be noted: mean±SD.
Another data set has as its system caspase 3/7. Kind of data set: Inhibition of activation of caspase 3/7 in camptothecin cell model of apoptosis. To be noted: 50 μM, positive control; 50 μM CPT 6 hours. The format is cell-based, human. As for the experimental part: (§1) The assay was performed on human neuroblastoma SK-N-MC cells in culture, maintained as described in section 2.1.
The induction of apoptosis on the cells in culture was performed with camptothecin (CPT), which triggers the activation of cell apoptosis. Apoptosis was quantified by means of the measurement of the activation of effector caspases, caspase 3 or caspase 7, for which a kit for the fluorometric detection of active caspase 3/7 (Apo-ONE® Homogeneous Caspase-3/7, Promega) was used. Active caspases 3 or 7 of the cells cause the rupture of a substrate, which leads to fluorescence emission, which is read by means of a fluorometer. The effect of the pretreatment of compound NST0060 at 10 and 40 μM on the activation of caspase 3/7 produced by 50 μM of camptothecin (CPT) in the SK-N-MC cells was thus analyzed. These cells, not exceeding 15 passages, were seeded on 96-well plates treated for adherent cells with a cell concentration of 5×10^4 cells/well; 3 wells of the plate were seeded for each assay condition.
After 24 hours of cell incubation (at 37° C. and 5% CO2), the pretreatment with NST0060 at 10 and 40 μM was performed.
The cells were incubated (at 37° C. and 5% CO2) with these treatments for 6 hours, after which cell lysis buffer and the caspase substrate at the concentrations specified by the manufacturer were added; it was incubated at room temperature for 30 minutes and then frozen at −20° C. overnight. Fluorescence was measured the next day (499/521 nm, Exci/Emi).

Data set [4] concerns human neuroblastoma SK-N-MC cells. Kind of data set: Inhibition of DNA fragmentation (sub-G1, flow cytometry) in camptothecin cell model of apoptosis. The format is cell-based. The settings on record: 50 μM, positive control; 50 μM CPT. How it is done:
as §1
The inhibition caused by compound NST0060 with respect to apoptosis caused by treatment with camptothecin (CPT), which inhibits the topoisomerase I enzyme, prevents DNA duplication and triggers apoptotic cell death. These cells, not exceeding 15 passages, were seeded on 6-well plates treated for adherent cells with a cell concentration of 7×10^5 cells/well; 2 wells of the plate were seeded for each assay condition.
After 24 hours of cell incubation (at 37° C. and 5% CO2), cell pretreatment was performed with 10 and 40 μM of NST0060 for 24 hours; they were subsequently treated with 50 μM CPT for 6 hours. Furthermore, Z-VAD-fmk at 50 μM was used as positive control for inhibition.
After treatment, the cells were collected along with their culture medium and centrifuged at 300×g for 5 minutes. The medium was removed, a washing was performed with PBS and the cells were fixed for 2 minutes with 500 μl of 70% ethanol at −20° C. […] After this time they were analyzed by flow cytometry, comparing the fluorescence of propidium iodide with respect to the amount of DNA. The percentage of apoptosis was measured on the sub-G1 region of each of the conditions.
On the technique in general: A flow cytometer gives signals particle by particle.

As to `CCC(C)(C)C(=O)O[C@H]1C[C@@H](C)C=C2C=C[C@H](C)[C@H](CC[C@@H]3C[C@@H](O)CC(=O)O3)[C@H]21` [simvastatin, reference compound], the “Mortality (dead larvae with respect to the total)” value in data set [1] (Dose 1 mg/kg) is listed as 0/30; in data set [1] (Dose 3 mg/kg) it was 0/30; in data set [1] (Dose 10 mg/kg), 16/30; in data set [1] (Dose 30 mg/kg), 30/30; in data set [1] (Dose 100 mg/kg) it was 30/30. Also, the “deaths out of 30 animals” value in data set [1] (dose of 10 mg/Kg, 72 h) is on record as 16. The “heart rate with respect to the controls” value in data set [2] (dose of 3 mg/Kg) and in data set [2] (dose of 10 mg/Kg) was “significant decrease of the heart rate” in each case. Moreover, the “percentage of healthy larvae” value in data set [3] (dose of 1 mg/Kg) and in data set [3] (dose of 3 mg/Kg) was 50.0±22.4% throughout.

On to Z-VAD-fmk [reference compound], for which the “inhibition of the activation of caspase 3/7” value in the data set on caspase 3/7 was “completely inhibited”. Also, in data set [4], the “inhibition of apoptosis (DNA fragmentation) caused by CPT” value is “specifically inhibited apoptosis caused by CPT”.
